Assay results published in ChEMBL document CHEMBL5346941, “Design, synthesis and evaluation of novel monoamine oxidase B (MAO-B) inhibitors with improved pharmacokinetic properties for Parkinson's disease” (Eur J Med Chem, 2023).
One block for each compound: values may come before it.

Experiments:
[1] = biological target: T1, Amine oxidase [flavin-containing] B (Homo sapiens, UniProt P27338); assay: Inhibition of recombinant human MAO-B expressed in Sf9 cells using p-tyramine as substrate preincubated for 15 mins followed by substrate addition and measured after 60 mins by luciferin based luminescence analysis
T1 sequence (P27338 whole entry): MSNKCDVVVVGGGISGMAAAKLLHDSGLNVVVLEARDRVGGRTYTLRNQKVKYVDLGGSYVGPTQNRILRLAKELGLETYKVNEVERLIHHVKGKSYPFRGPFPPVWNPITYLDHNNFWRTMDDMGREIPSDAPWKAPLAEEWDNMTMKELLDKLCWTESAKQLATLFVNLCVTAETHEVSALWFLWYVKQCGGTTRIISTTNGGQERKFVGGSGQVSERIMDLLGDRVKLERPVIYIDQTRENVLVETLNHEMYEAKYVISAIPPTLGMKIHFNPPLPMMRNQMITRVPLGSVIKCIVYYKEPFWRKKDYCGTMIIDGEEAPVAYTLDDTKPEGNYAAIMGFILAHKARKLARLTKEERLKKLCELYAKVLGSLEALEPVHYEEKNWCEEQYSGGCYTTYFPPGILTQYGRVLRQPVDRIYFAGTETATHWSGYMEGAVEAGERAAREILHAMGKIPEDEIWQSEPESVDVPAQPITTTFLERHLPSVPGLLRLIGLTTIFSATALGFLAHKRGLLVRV

[2] = biological target: T2, Amine oxidase [flavin-containing] A (Homo sapiens, UniProt P21397); assay: Inhibition of recombinant human MAO-A expressed in Sf9 cells using […] as substrate preincubated for 15 mins followed by substrate addition and measured after 60 mins by luciferin based luminescence analysis
T2 sequence (P21397 whole entry): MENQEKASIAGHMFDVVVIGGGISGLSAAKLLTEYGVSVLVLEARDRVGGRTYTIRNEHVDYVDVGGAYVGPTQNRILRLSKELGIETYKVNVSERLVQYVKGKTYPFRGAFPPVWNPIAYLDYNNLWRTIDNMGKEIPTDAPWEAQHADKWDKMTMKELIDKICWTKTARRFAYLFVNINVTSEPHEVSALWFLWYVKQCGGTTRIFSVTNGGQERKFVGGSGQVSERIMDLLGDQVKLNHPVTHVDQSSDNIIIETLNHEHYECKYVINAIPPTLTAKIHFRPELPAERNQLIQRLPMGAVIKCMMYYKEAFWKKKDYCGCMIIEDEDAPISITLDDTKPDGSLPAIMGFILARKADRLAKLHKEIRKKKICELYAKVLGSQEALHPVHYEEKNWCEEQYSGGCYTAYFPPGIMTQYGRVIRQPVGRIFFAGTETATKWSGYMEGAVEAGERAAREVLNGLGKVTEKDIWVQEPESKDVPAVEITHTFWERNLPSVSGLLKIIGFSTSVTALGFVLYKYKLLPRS

[3] = Drug concentration in Sprague-Dawley rat brain at 5 mg/kg, ip measured after 15 mins by LC-MS/MS analysis; format: ADME, organism-based; conditions: read-out: Ct
[4] = Cmax in fasted ICR mouse at 5 mg/kg, IG measured for 24 hrs; format: ADME, organism-based; parameters: dose 5 mg/kg, time 24 hrs, route ig; conditions: in vivo, po
[5] = Drug concentration in Sprague-Dawley rat brain at 5 mg/kg, ip measured after 120 mins by LC-MS/MS analysis; format: ADME, organism-based; conditions: read-out: Ct
[6] = Cmax in fasted Sprague-Dawley rat at 5 mg/kg, IG measured for 24 hrs; format: ADME, organism-based; parameters: dose 5 mg/kg, time 24 hrs, route ig; conditions: in vivo, po
[7] = Volume of distribution at steady state in fasted Sprague-Dawley rat at 1 mg/kg, iv measured for 24 hrs; format: ADME, organism-based; conditions: in vivo, read-out: Vdss
[8] = Metabolic stability in mouse liver microsomes assessed as half life at 1 uM incubated for 60 mins in presence of NADPH by LC-MS/MS analysis; format: ADME, Microsome
[9] = Clearance in fasted Sprague-Dawley rat at 1 mg/kg, iv measured for 24 hrs; format: ADME, organism-based; conditions: in vivo
[10] = Elimination half life in fasted Sprague-Dawley rat at 5 mg/kg, IG measured for 24 hrs; format: ADME, organism-based; conditions: in vivo, po, read-out: beta t1/2 (converted)
[11] = Bioavailability in fasted Sprague-Dawley rat at 5 mg/kg, IG measured for 24 hrs; format: ADME, organism-based; conditions: in vivo, po
[12] = Elimination half life in fasted ICR mouse at 5 mg/kg, IG measured for 24 hrs; format: ADME, organism-based; conditions: in vivo, po, read-out: beta t1/2 (converted)
[13] = AUC (0 to t) in fasted ICR mouse at 2 mg/kg, iv measured for 24 hrs; format: ADME, organism-based; parameters: dose 2 mg/kg, time 24 hrs, route iv; conditions: in vivo
[14] = Drug concentration in Sprague-Dawley rat plasma at 5 mg/kg, ip measured after 60 mins by LC-MS/MS analysis; format: ADME, organism-based
[15] = Metabolic stability in human liver microsomes assessed as half life at 1 uM incubated for 60 mins in presence of NADPH by LC-MS/MS analysis; format: ADME, Microsome
[16] = Metabolic stability in rat liver microsomes assessed as intrinsic clearance at 1 uM incubated for 60 mins in presence of NADPH by LC-MS/MS analysis; format: ADME, Microsome; conditions: read-out: CLH
[17] = Ratio of drug concentration in Sprague-Dawley brain to plasma at 5 mg/kg, ip measured after 120 mins by LC-MS/MS analysis; format: ADME, organism-based; conditions: rat, read-out: BPR
[18] = Clearance in fasted ICR mouse at 2 mg/kg, iv measured for 24 hrs; format: ADME, organism-based; conditions: in vivo
[19] = Metabolic stability in mouse liver microsomes assessed as intrinsic clearance at 1 uM incubated for 60 mins in presence of NADPH by LC-MS/MS analysis; format: ADME, Microsome; conditions: read-out: CLH
[20] = Drug concentration in Sprague-Dawley rat plasma at 5 mg/kg, ip measured after 15 mins by LC-MS/MS analysis; format: ADME, organism-based
[21] = AUC (0 to t) in fasted Sprague-Dawley rat at 5 mg/kg, IG measured for 24 hrs; format: ADME, organism-based; parameters: dose 5 mg/kg, time 24 hrs, route ig; conditions: in vivo, po
[22] = Metabolic stability in dog liver microsomes assessed as half life at 1 uM incubated for 60 mins in presence of NADPH by LC-MS/MS analysis; format: ADME, Canis lupus familiaris, Microsome
[23] = Cmax in fasted Sprague-Dawley rat at 1 mg/kg, iv measured for 24 hrs; format: ADME, organism-based; parameters: dose 1 mg/kg, time 24 hrs, route iv; conditions: Sprague-Dawley, in vivo, read-out: Cmax
[24] = Elimination half life in fasted ICR mouse at 2 mg/kg, iv measured for 24 hrs; format: ADME, organism-based; conditions: in vivo, read-out: beta t1/2 (converted)
[25] = Drug concentration in Sprague-Dawley rat plasma at 5 mg/kg, ip measured after 120 mins by LC-MS/MS analysis; format: ADME, organism-based
[26] = AUC (0 to t) in fasted Sprague-Dawley rat at 1 mg/kg, iv measured for 24 hrs; format: ADME, organism-based; parameters: dose 1 mg/kg, time 24 hrs, route iv; conditions: in vivo
[27] = Elimination half life in fasted Sprague-Dawley rat at 1 mg/kg, iv measured for 24 hrs; format: ADME, organism-based; conditions: in vivo, read-out: beta t1/2 (converted)
[28] = Metabolic stability in rat liver microsomes assessed as half life at 1 uM incubated for 60 mins in presence of NADPH by LC-MS/MS analysis; format: ADME, Microsome
[29] = Ratio of drug concentration in Sprague-Dawley brain to plasma at 5 mg/kg, ip measured after 60 mins by LC-MS/MS analysis; format: ADME, organism-based; conditions: rat, read-out: BPR
[30] = Volume of distribution at steady state in fasted ICR mouse at 2 mg/kg, iv measured for 24 hrs; format: ADME, organism-based; conditions: in vivo, read-out: Vdss
[31] = Cmax in fasted ICR mouse at 2 mg/kg, iv measured for 24 hrs; format: ADME, organism-based; parameters: time 24 hrs, dose 2 mg/kg, route iv; conditions: in vivo
[32] = Metabolic stability in human liver microsomes assessed as intrinsic clearance at 1 uM incubated for 60 mins in presence of NADPH by LC-MS/MS analysis; format: ADME, Microsome; conditions: read-out: CLH
[33] = Metabolic stability in dog liver microsomes assessed as intrinsic clearance at 1 uM incubated for 60 mins in presence of NADPH by LC-MS/MS analysis; format: ADME, Canis lupus familiaris, Microsome; conditions: read-out: CLH
[34] = Ratio of drug concentration in Sprague-Dawley brain to plasma at 5 mg/kg, ip measured after 15 mins by LC-MS/MS analysis; format: ADME, organism-based; conditions: rat, read-out: BPR
[35] = AUC (0 to t) in fasted ICR mouse at 5 mg/kg, IG measured for 24 hrs; format: ADME, organism-based; parameters: dose 5 mg/kg, time 24 hrs, route ig; conditions: in vivo, po
[36] = Bioavailability in fasted ICR mouse at 5 mg/kg, IG measured for 24 hrs; format: ADME, organism-based; conditions: in vivo, po
[37] = Drug concentration in Sprague-Dawley rat brain at 5 mg/kg, ip measured after 60 mins by LC-MS/MS analysis; format: ADME, organism-based; conditions: read-out: Ct

Structure (SMILES): C[C@H](NCc1ccc(OCc2cccc(F)c2)cc1)C(N)=O [SAFINAMIDE]
concentration at 0.25 h [3]: 3960 ng/g
Cmax [4]: 755 ng/mL
concentration at 2 h [5]: 2170 ng/g
Cmax [6]: 148 ng/mL
Vd [7]: 5.26 L/kg
half-life at 1 µM [8]: 1.1 h
clearance [9]: 70.6 mL/min/kg
half-life [10]: 2.62 h
bioavailability [11]: 48.5%
half-life [12]: 2.78 h
AUC(0-t) at 24 h [13]: 930 ng·h/mL
concentration at 1 h [14]: 353 ng/mL
half-life at 1 µM [15]: 8.94 h
CLint scaled at 1 µM [16]: 38.3 mL/min/kg
Kp at 2 h [17]: 15.1
clearance [18]: 34.7 mL/min/kg
CLint scaled at 1 µM [19]: 43.2 mL/min/kg
concentration at 0.25 h [20]: 371 ng/mL
AUC(0-t) at 24 h [21]: 536 ng·h/mL
half-life at 1 µM [22]: 1.1 h
Cmax [23]: 244 ng/mL
half-life [24]: 1.59 h
concentration at 2 h [25]: 144 ng/mL
AUC(0-t) at 24 h [26]: 233 ng·h/mL
half-life [27]: 1.18 h
half-life at 1 µM [28]: 0.331 h
Kp at 1 h [29]: 14.4
Vd [30]: 4.53 L/kg
Cmax [31]: 429 ng/mL
CLint scaled at 1 µM [32]: 2.8 mL/min/kg
CLint scaled at 1 µM [33]: 43.2 mL/min/kg
Kp at 0.25 h [34]: 10.7
AUC(0-t) at 24 h [35]: 3050 ng·h/mL
bioavailability [36]: 129%
concentration at 1 h [37]: 5100 ng/g

Structure (SMILES): COc1ccc(-c2cc3cc(CN4CC[C@H]4C(N)=O)ccc3o2)cc1
IC50 [1]: 7.39 µM
IC50 [2]: > 10 µM

Structure (SMILES): C[C@H](NCc1ccc2oc(-c3cccc(F)c3)cc2c1)C(N)=O
IC50 [1]: 2.25 µM
IC50 [2]: 4.94 µM

Structure (SMILES): COc1cccc(-c2cc3cc(CN[C@@H](C)C(N)=O)ccc3o2)c1
IC50 [1]: 4.55 µM
IC50 [2]: 5.91 µM

Structure (SMILES): NC(=O)[C@@H]1CCN1Cc1ccc2oc(-c3ccc(F)cc3)cc2c1
Cmax [6]: 161 ng/mL
Vd [7]: 8.53 L/kg
clearance [9]: 102 mL/min/kg
half-life [10]: 3.92 h
bioavailability [11]: 80.9%
IC50 [1]: 0.038 µM
AUC(0-t) at 24 h [21]: 623 ng·h/mL
IC50 [2]: > 10 µM
Cmax [23]: 213 ng/mL
AUC(0-t) at 24 h [26]: 161 ng·h/mL
half-life [27]: 0.482 h

Second part, the compound after the results:

IC50 [1]: 0.833 µM
IC50 [2]: > 10 µM
Structure (SMILES): NC(=O)[C@@H]1CC(F)(F)CN1Cc1ccc2oc(-c3ccc(F)cc3)cc2c1

IC50 [1]: > 10 µM
IC50 [2]: 2.78 µM
Structure (SMILES): COc1ccc(-c2cc3cc(CN[C@@H](C)C(N)=O)ccc3o2)cc1

Cmax [6]: 167 ng/mL
Vd [7]: 2.39 L/kg
clearance [9]: 106 mL/min/kg
half-life [10]: 1.15 h
bioavailability [11]: 86.7%
IC50 [1]: 0.073 µM
AUC(0-t) at 24 h [21]: 672 ng·h/mL
IC50 [2]: > 10 µM
Cmax [23]: 360 ng/mL
AUC(0-t) at 24 h [26]: 155 ng·h/mL
half-life [27]: 0.374 h
Structure (SMILES): NC(=O)[C@@H]1CCN1Cc1ccc2oc(-c3ccccc3F)cc2c1
